Assay results from PubChem BioAssay AID179 (DTP/NCI, 2004).
Activity calls are given as the source filed them.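 The calls were made as follows: active = compounds giving half or more protection of infected cells from virus-caused growth loss, again on retest; inactive = the rest.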 Where a SMILES comes first, the peptide text is derived from it. [ ]: non-standard residue; d: D form. The star is where a group is joined. Phe(4-NO2) = N[CH](Cc1ccc([N+](=O)[O-])cc1)C(=O)O; Cbz = O=C(OCc1ccccc1)*

Test system: CEM cells HIV-1 protection, formazan growth assay
Test: NCI AIDS Antiviral Assay
Conditions: for IC50: measured here: growth of uninfected CEM cells
In short: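 Soluble formazan readout of cell growth; CEM cells ± HIV-1; 5 drug concs. ≥50% protection → retest; ≥50% again = moderately active; reproducible 100% = confirmed active.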

SMILES	EC50	IC50	outcome
N#CC(C(=N/O)/C(=N\O)C(C#N)c1ccccc1)c1ccccc1 (stereo not given)	> 794 µM	123 µM	–
COC(=O)N[C@H](C(=O)O)C(C)O[Si](C)(C)C(C)(C)C (stereo not given in full)	> 851 µM	> 851 µM	–
CCCCCCCCC1=C(OC)C(=O)c2ccc(Cl)nc2C1=O	–	–	inactive
Cc1nn2cnnc2s1	> 501 µM	> 501 µM	–
COc1cc2c(cc1O)C1(Cc3ccc4c(c3C1=O)OCO4)N(C)CC2 (stereo not given)	> 200 µM	> 200 µM	–
COc1ccc(C=C2C(=O)c3ccccc3C2=O)cc1	–	–	inactive
COC(=O)C(=O)C(C(=O)C(=O)Nc1ccccc1C(N)=O)c1nc2ccc(C(=O)c3ccccc3)cc2[nH]c1=O (stereo not given)	> 240 µM	63.1 µM	–
O=P(O)(O)c1ccc2c(c1)OCCOCCOCCOCCO2	> 200 µM	> 200 µM	–
Cc1ccc(Cl)c(NC(=O)C(=O)C(C(=O)c2ccncc2)C2OC(=O)c3ccccc32)c1 (stereo not given)	> 562 µM	166 µM	–
CCCN(CCCC(NC(C)=O)C(=O)NCc1ccccc1)C(=O)NC (stereo not given)	> 692 µM	> 692 µM	–
CCOP1(=O)CC(C)=C(Cl)C(O)C1 (stereo not given)	> 200 µM	> 200 µM	–
CC(C)=CCN1CC(C)Cn2c(=S)[nH]c3cccc1c32 (stereo not given)	1.17 µM	> 100 µM	–
CC(C)CCn1c(=O)c2c(=O)[nH][nH]c2c2ccccc21	> 200 µM	> 200 µM	–
C/C=C1\CC(C(=O)OCC)CCCCCCC1=O (stereo not given)	> 200 µM	17.4 µM	–
C/C(CC(=O)NCCc1ccccc1)=N\NS(=O)(=O)c1ccc(C)cc1	> 347 µM	339 µM	–
CC1CCCC(C(=O)/C(=C/c2cccc(Cl)c2)C(=O)C(=O)O)C1 (stereo not given)	> 15.5 µM	> 15.5 µM	–
Cc1c2c(cc3c1C(=O)C(=O)C([C@@H](C)CO)=C3O)C(C)(C)CCC2	> 200 µM	15.1 µM	–
O=C(Nc1ccccc1)c1cc(S(=O)(=O)n2cc[nH]c2=O)c(S)cc1Cl	> 200 µM	> 200 µM	–
O=C(NC1CCCCC1)NS(=O)(=O)c1ccc2c(c1)CCC2	> 200 µM	> 200 µM	–
CCOC(=O)CCC(NC(=O)N1CCN(c2c(C)nc(C)[nH]c2=O)CC1)C(=O)OCC (stereo not given)	> 200 µM	> 200 µM	–
CN(C)c1ccc(C(=C2C=CC(=[N+](C)C)C=C2)c2c(O)c(S(=O)(=O)O)cc3cc(S(=O)(=O)O)ccc23)cc1	–	–	inactive

SMILES	EC50	IC50	outcome
O=C1c2ccccc2CCC1(Br)C(Br)c1ccccc1 (stereo not given)	> 200 µM	5.37 µM	–
C#CC1(O)CCC2[C@@H]3CCc4cc(Oc5nc(F)nc(-c6c(C)c(C(=O)OCC)n7ccccc67)n5)ccc4C3CC[C@@]21C (stereo not given in full)	> 100 µM	> 100 µM	–
N#C/C(N)=C(\C#N)NC=NCCO	> 200 µM	> 200 µM	–
COC(=O)/C(=N\NC(N)=S)C(C#N)c1ccccc1 (stereo not given)	> 129 µM	> 129 µM	–
Cc1ccc(S(=O)(=O)ON2C(=O)c3cccc4cc([N+](=O)[O-])cc(c34)C2=O)cc1	> 63.1 µM	> 63.1 µM	–
COc1ccc(/C=C\c2cc(OC)c(OC)c(OC)c2)cc1OC(=O)CC(N)C(=O)O (stereo not given)	> 0.2 µM	0.000309 µM	–
Cc1cc(S(=O)(=O)Nc2nc3ccccc3c(=O)n2N)c(S)cc1Cl	40.7 µM	77.6 µM	–
COc1c(C(CC(C)C)OC(C)=O)ccc2c1C(=O)OCc1cc(C)cc(O)c1O2 (stereo not given)	> 200 µM	10.5 µM	–
CC(C)[N+](C)(C)CC(O)COc1cccc2ccccc12 (stereo not given)	> 200 µM	> 200 µM	–
C=C1C(=O)OC2C3C(=C)[C@@H](OC(C)=O)CC3C(C)=CC(OC(=O)C(C)(O)C(C)OC(C)=O)[C@@H]12 (stereo not given in full)	> 200 µM	> 200 µM	–
S=C1N(c2ccc(Br)cc2)C2=Nc3ccccc3SC(=C2N=Nc2ccccc2Cl)N1c1ccc(Cl)cc1	> 34.7 µM	6.76 µM	–
CCOC(=O)C1(C(=O)OCC)CC1(C(=O)OCC)C(=O)OCC	–	–	inactive
NC1=NCC(c2ccc(Cl)cc2)O1 (stereo not given)	> 200 µM	50.1 µM	–
CCn1c2ccccc2c2ccc(C3C(C(=O)OC)=C(C)NC(C)=C3C(=O)OC)cc21	–	–	inactive
O=c1c2c(no[n+]2[O-])c2ccccc2n1-c1ccccc1	> 200 µM	1.95 µM	–
O=C(N/C(=C\c1ccc([N+](=O)[O-])cc1)c1nc2ccccc2s1)c1ccccc1	> 32.4 µM	> 32.4 µM	–
Cn1cnnc1Sc1c([N+](=O)[O-])nc(-c2ccc([N+](=O)[O-])cc2)n1C	> 100 µM	2.95 µM	–
O=[N+]([O-])c1cc([As](=O)(O)O)ccc1S(=O)(=O)O	> 200 µM	> 200 µM	–
COC1N(C2CC(N=[N+]=[N-])C(CO)O2)C(=O)NC(=O)C1(C)Cl (stereo not given)	6.61 µM	891 µM	–
OCCNCNc1nc(NCNCCO)nc(N(CNCCO)CNCCO)n1	> 200 µM	26.9 µM	–
CSSCc1ccccc1	> 200 µM	19.1 µM	–

SMILES	EC50	IC50	outcome
CCOC(=O)c1nnsc1NC(=O)NCCCCCCn1c(=O)n(CCCCCCNC(=O)Nc2snnc2C(=O)OCC)c(=O)n(CCCCCCNC(=O)Nc2snnc2C(=O)OCC)c1=O	> 200 µM	> 200 µM	–
CCOC(=O)N/N=C(\CC)NO	> 200 µM	> 200 µM	–
CC1(c2ccccc2)CC(c2cccc([N+](=O)[O-])c2)=NO1 (stereo not given)	–	43.7 µM	inactive
[N-]=[N+]=NC1=C(c2ccccc2)C(=O)c2cccc3cccc1c23	> 200 µM	7.76 µM	–
BrC(Br)=C1C(=C(Br)Br)C(Br)C1Br (stereo not given)	–	–	inactive
CCN(CC)C(=S)N/N=C(\C)c1cccc(C)n1	> 2 µM	0.0132 µM	–
O=C(c1ccccc1)c1ccc(SSc2ccc(C(=O)c3ccccc3)cc2[N+](=O)[O-])c([N+](=O)[O-])c1	> 200 µM	13.8 µM	–
CC(C)=CCC/C(C)=C/CC/C(C)=C/OP(=O)(O)OP(=O)(O)O	> 162 µM	> 162 µM	–
C=C1CC(Cn2ccc(=O)[nH]c2=O)(c2ccc(Cl)cc2)OC1=O (stereo not given)	> 20 µM	0.912 µM	–
O=C1CSc2ccncc2N1	> 1510 µM	> 1510 µM	–
S=c1sc2c(s1)SCc1cccc(n1)CSc1sc(=S)sc1SCc1cccc(n1)CS2	> 200 µM	> 200 µM	–
C=Cc1cc[n+](CCCCC[n+]2ccc(C=C)cc2)cc1	> 100 µM	> 100 µM	–
CSc1nc2[nH]c(=O)n(OS(=O)(=O)c3ccccc3)c(=O)c2n1C	> 200 µM	115 µM	–
COc1ccc(/C(Cl)=C(\C=O)c2ccccc2)cc1OC	–	–	inactive
CC(C)(C)c1cc(-c2c3nc(c(-c4cc(C(C)(C)C)cc(C(C)(C)C)c4)c4ccc([nH]4)c(-c4cc(C(C)(C)C)cc(C(C)(C)C)c4)c4nc(c(-c5cc(C(C)(C)C)cc(C(C)(C)C)c5)c5ccc2[nH]5)C=C4)C=C3)cc(C(C)(C)C)c1	> 33.9 µM	> 33.9 µM	–
CC(NC(=O)OCc1ccccc1)C(=O)NC(C(=O)O)C(C)C (stereo not given)	> 776 µM	> 776 µM	–
N#Cc1c(N2CCCC2)[nH]c(=O)n(-c2ccccc2)c1=S	> 200 µM	> 200 µM	–
CCc1nc2c(O)ccc(O)c2nc1C	> 178 µM	10.5 µM	–
COc1ccc(S(=O)(=O)N[C@@H](C(=O)O)c2ccccc2)cc1	–	–	inactive
O=c1[nH]cc(/C=N\OCCP(=O)(O)O)c(=O)[nH]1	> 200 µM	> 200 µM	–
CN1C(=O)N(C)C2(CCN(CCCCCCF)CC2)C1=O	> 200 µM	> 200 µM	–

SMILES	EC50	IC50	outcome
CCOC(=O)CCC(NC(=O)OCc1ccccc1)C(=O)NC(CCC(=O)OCC)C(=O)NC(Cc1ccc([N+](=O)[O-])cc1)C(=O)NC(CCC(=O)OCC)C(=O)NC(CCC(=O)OCC)C(=O)OCC (stereo not given) (Cbz-E(OEt)E(OEt)[Phe(4-NO2)]E(OEt)E(OEt)-OEt; configuration not given here)	> 200 µM	> 200 µM	–
C/C(=C1/CCC/C(=C(/C)c2ccccc2)C1=O)c1ccccc1	> 9.12 µM	> 9.12 µM	–
O=C(O)C1CC2(CCC1c1ccccc1)SCCS2 (stereo not given)	> 447 µM	> 447 µM	–
N#CC(Sc1ccccc1)c1ccccc1 (stereo not given)	> 44.7 µM	> 44.7 µM	–
C=C(Cn1cnc2c(N)ncnc21)C(=O)OC	> 107 µM	7.76 µM	–
O=C(O)CCN1c2ccccc2Sc2ccccc21	> 479 µM	170 µM	–
COc1ccc(N2C(=O)C3c4[nH]c5ccc(C)cc5c4C4CCC(C(C)(C)C)CC4C3C2=O)cc1 (stereo not given)	12 µM	47.9 µM	–
Cc1cn(C2CC(N=[N+]=[N-])C(COP(=O)(O)OCC3CCC(n4ccc(N)nc4=O)O3)O2)c(=O)[nH]c1=O (stereo not given)	0.0468 µM	20 µM	–
CCOC(OCC)C(CC)[Se]c1ccccc1 (stereo not given)	> 87.1 µM	> 87.1 µM	–
C[C@H](C/C=C/C(C)(C)O)[C@H]1CC[C@@]2(C)[C@@H]3CC[C@H]4C(C)(C)[C@@H](O)CC[C@@]45C[C@@]35CC[C@]12C	> 200 µM	4.68 µM	–
Cn1cc(NC(=O)Nc2cc(C(=O)Nc3cc(C(=O)Nc4ccc(S(=O)(=O)O)c5cc(S(=O)(=O)O)cc(S(=O)(=O)O)c45)n(C)c3)n(C)c2)cc1C(=O)Nc1cc(C(=O)Nc2ccc(S(=O)(=O)O)c3cc(S(=O)(=O)O)cc(S(=O)(=O)O)c23)n(C)c1	–	–	active
COC(=O)CC(=O)/C(=C/C(C/C=C(\C(=O)CC(=O)OC)C(=O)OC)OC)C(=O)OC (stereo not given)	> 200 µM	> 200 µM	–
C=C1c2nc3ccccc3n2C=C(c2ccccc2)N1c1ccc([N+](=O)[O-])cc1	> 200 µM	42.7 µM	–
CCOCC(=O)N[C@H]1CCc2cc(OC)c(OC)c(OC)c2-c2ccc(OC)c(=O)cc21	> 2 µM	0.00347 µM	–
CC(C)[C@@H]1CC[C@@H](C)C[C@H]1OC(=O)c1c2n(c3ccccc13)C[C@H]1OC(C)(C)O[C@@H]21	> 100 µM	77.6 µM	–
CC/C(CC(=O)CCC(=O)Nc1c(C)cccc1C)=N\NC(=O)NN	> 145 µM	> 145 µM	–
CC(=O)NNC(=S)/N=C/C(C(=O)Nc1ccc([N+](=O)[O-])cc1)=C(\C)O	117 µM	170 µM	–
CCCCCC(/C=C/C1CCC(=O)C1)OCOCCOC (stereo not given)	> 200 µM	18.2 µM	–
COc1ccc(C2CN(C(=O)c3ccccc3)N=C(c3ccccc3)O2)cc1 (stereo not given)	> 17 µM	> 17 µM	–
